Experimental findings from patent publication US20040197852A1, “Method of preparing peptide fragment having cell death inhibitory activity” (priority 2001, published 2004) are described below.

To fix the notation:
B1: Selenoprotein P untreated: full-length selenoprotein P purified from human plasma in Example 1, M.W. around 67,000 in SDS-PAGE (protein, UniProt P49908 20-381, looked up)
Selenoprotein P: ESQDQSSLCKQPPAWSIRDQDPMLNSNGSVTVVALLQASUYLCILQASKLEDLRVKLKKEGYSNISYIVVNHQGISSRLKYTHLKNKVSEHIPVYQQEENQTDVWTLLNGSKDDFLIYDRCGRLVYHLGLPFSFLTFPYVEEAIKIAYCEKKCGNCSLTTLKDEDFCKRVSLATVDKTVETPSPHYHHEHHHNHGHQHLGSSELSENQQPGAPNAPTHPAPPGLHHHHKHKGQHRQGHPENRDMPASEDLQDLQKKLCRKRCINQLLCKLPTDSELAPRSUCCHCRHLIFEKTGSAITUQCKENLPSLCSUQGLRAEENITESCQURLPPAAUQISQQLIPTEASASURUKNQAKKUEUPSN

The first assay deals with Dami cells. As to the kind of experiment: Cell death-inhibitory activity in Dami cells in serum-free medium with BSA and linoleic acid. The class given is cell-based, human. The following applies: each 1 ppm selenium added to the system; Dami cells. The text has this: For screening a cell death-inhibitory activity for isolation and identification of the C-terminal fragment of selenoprotein P as described above, a culture system of Dami cells, human megakaryoblasts, with serum free culture medium supplemented with albumin was suitably used. […] With culture medium containing 0.01 to 0.5% human serum albumin, the cells grow normally but on Day 4 and henceforth all the cells are put to death abruptly. A cell death-inhibitory activity in a sample may be measured by applying the sample to this culture system.
The cells were cultured for three days and recovered for assay. The recovered cells were washed twice with SA/0.05% skimmed BSA (manufactured by SIGMA) containing 4 μM linoleic acid and suspended in the same medium at 3×10^4 cells/mL. The cell suspension was then added to a 96-well plate in each 200 μl for wells for sample addition or in each 100 μl for wells for serial dilution. To the wells for sample addition was added 2 μl sample and, after stirring, a serial dilution was made with the wells containing 100 μl cell suspension. The plate was incubated at 37° C. in CO2 incubator for 4 to 5 days followed by assessment. In this system, Dami cells will die in the wells added with samples having no activity but will survive in the wells added with samples having the activity on Day 4 and thenceforth. Thus, assessment was made with to what folds of dilution of tested samples the living cells could survive. Therefore, the higher the value in the following table, the higher a cell death-inhibitory activity.
After washing the column with about 8 mL PBS, elution was made with 0.1 M glycine, pH 2.8. The eluate fractions were neutralized with about 1/10 amount of 1 M Tris-HCl. The fraction that passed through chromatographic column and the washing fractions were pooled, concentrated with SpeedVac, and dialyzed against PBS.
Consider B1, for which the “Cell death-inhibitory activity (Folds of dilution)” value was 5000 Folds of dilution.

Still in this assay, the particulars now being: selenoprotein P digested with 1/10 weight of enzyme, 37° C., 24 hours; 2 μl sample serially diluted; Dami cell survival at 4 to 5 days.
As for Plasmin, the “Cell death-inhibitory activity (Folds of dilution)” value was 600 Folds of dilution.

For Trypsin, the “Cell death-inhibitory activity (Folds of dilution)” value is recorded as 600 Folds of dilution.

For the molecule Elastase, the “Cell death-inhibitory activity (Folds of dilution)” value is 600 Folds of dilution.

For the molecule Activated protein C, the “Cell death-inhibitory activity (Folds of dilution)” value is recorded as 800 Folds of dilution.

As to Thrombin, the “Cell death-inhibitory activity (Folds of dilution)” value was 600 Folds of dilution.

B1: the “Cell death-inhibitory activity (Folds of dilution)” value was 400 Folds of dilution.
